In one experiment the target is SARS-CoV-2 Mpro (UniProt P0DTD1).
Another experiment has as its target MERS-CoV Mpro (UniProt K9N7C7).

This note sets out measurements from the ASAP Discovery antiviral challenge data (2025).

Broadly, the IC50 is the midpoint of a concentration-inhibition curve. A lower IC50 goes with inhibition by little substance. On to `O=C(NCc1cccs1)[C@@H]1CN(C(=O)c2cccnc2)CCN1c1ccc(Cl)c(Cl)c1`, for which the values for the IC50 against SARS-CoV-2 Mpro and against MERS-CoV Mpro were 0.123 µM and 57.5 µM, respectively.
